Series [1] relates to parasites. The following applies: prior art fumigants; cited from earlier work.
Series [2] relates to man. The following applies: cited from earlier work; for toxicity for man: prior art fumigants.
The subject of series [3] is insects. On the procedure: (§1) Laboratory tests were carried out preliminarily both in a ventilated environment and a confined environment by means of treatments by contact or inhalation with 100% commercial n-Hexane, for the sake of brevity called hereinafter “Hexane” with reference to the performance of the practical experimental tests whose execution procedures follow.

The subject of series [4] is mites. On the procedure:
as §1

Series [5] has as its system mites, larvae and adult forms of cheese fly. On the procedure: Subsequent tests were conducted in a closed chamber consisting of a box (70 cm×50 cm by 120 cm high) with polypropylene walls as this material is among those not attacked by Hexane such as other synthetic plastic materials among which polyethylene, polyester, polyethylene terephthalates in addition to aluminum, copper, carbon steel and stainless steel. […] On the bottom of this box was located a circular aluminum tank (dia. 22 cm×height 15 cm) on the bottom of which was arranged a copper coil in which was circulated hot liquid to heat to evaporation the Hexane fed into the tank. The material to be tested was placed in the box which was then closed hermetically.
Tests were performed with two different techniques, to wit, at reduced pressure and at atmospheric pressure.
Both by the reduced pressure technique and the atmospheric pressure technique quantities of Hexane variable from 50 ml to 800 ml were fed through a second tap having in it a silicon tube drawing from the bottom of the aluminum tank. By circulating hot liquid in the heating coil the Hexane present in liquid phase in the tank was held at a temperature of 70° C. to 75° C. for the entire period of experimentation in order to achieve complete evaporation of the Hexane. A blower was placed on the bottom of the box for homogeneous distribution of the Hexane vapors in the treatment environment.
The temperature in the box during all the tests and as a function of the material to be treated (biological or not), was included in the range 5° C. to 75° C. The duration of the treatment was between 1 and 72 hours for both procedures (atmospheric pressure or reduced pressure). In the reduced-pressure tests the pressure was held in a range of 0.5N/cm2 to 5N/cm2.
At the end of treatment time the box was reopened and the Hexane vapors allowed to free themselves outward.
(§2) Arthropods were introduced both on nonbiological supports such as glass, printed paper, differently colored fabrics (cotton, silk, linen, skin, wool and synthetic) and on biological materials such as ham, hard wheat pasta and hard crust cheeses. […] Also treated was biological material infested by mites, larvae and adult forms of cheese fly and Galleria mellonella using the entire set of tests described above.

For series [6] the following is noted: treated products.
Source text: as §2

As for `ClC(Cl)(Cl)Cl` [Carbon tetrachloride], in series [1], the “insecticidal / parasiticidal effectiveness” value was “slight parasiticidal power”. Also, the toxicity for man entry in series [2] is recorded as “less toxic than carbon sulfide”.
`C1CO1` [Ethylene oxide]: the toxicity for man result in series [2] is given as “highly toxic”.
Regarding `CCCCCC` [Hexane, n-Hexane], in series [3] (contact), the “abatement power on flies, mosquitoes, cockroaches, corrodentia, thysanura” value is listed as “high abatement power”. Further, the “toxic effect on insects by contact” value in series [3] (ventilated environment) is recorded as “significant toxic effect”. Also, in series [4] (Petri capsule, treatments of 15 minutes to two hours), the “mites dead 15 minutes after treatment” value is given as “all the mites present”. In addition, in series [4] (Petri capsule, verifiable after only a few minutes treatment), the “toxic activity on arthropods by inhalation” value was “strong toxic activity”. Also, the “arthropods returned to life within 15 days” value in series [4] (returned to optimal conditions 18-20 °C, 80% RH after treatment) is “none of them returned to life”. In addition, the “toxic effect on eggs (hatching)” value in series [4] (treatment for longer periods of time) is “strong hatching reduction”. For the same molecule, in series [4] (ventilated environment), the “toxic effect on mites by contact” value is “weak, temporary toxic effect”. Moreover, the “effect on mites and insects infesting cheese products, mattresses, cushions, sheets, carpet, drapes” value in series [5] (Hexane vapors, closed chamber) was “same result”. In addition, in series [5] (after 2 hours exposure to Hexane vapors, mites, larvae and adult forms of cheese fly), the “effect on parasites infesting ham and dressed pork products” value is “desired effect on nearly all parasites”. The “reclamation of the product (ham, dressed pork products)” value in series [5] (after 48 hours of treatment) was “complete reclamation”. In series [5] (approximately 720 g per m3 of air, up to 72 hours, surrounding temperature, atmospheric pressure), the “outcome of closed chamber tests compared with Petri capsule” value is reported as “confirmed the results obtained in Petri capsule”. For the same molecule, in series [5] (inhalation), the “concentration at which parasiticidal treatment is already considerably effective” value is listed as 250 g per cubic meter of air. In series [6], the “accumulation of toxic substances after treatment” value is given as “no accumulation of toxic substances”. Also, in series [2] (contact), the “toxicity index for man following contact” value is given as “low toxicity index”. Further, the “acute toxicity index for man by inhalation” value in series [2] (inhalation) is listed as “high acute toxicity index”.
Consider `CBr` [Methyl bromide], for which the toxicity for man result in series [2] was “very poisonous”.
On to `S=C=S` [carbon sulfide], for which, in series [1], the “insecticidal / parasiticidal effectiveness” value was “high insecticidal effectiveness”. Besides, the toxicity for man result in series [2] was “high toxicity”.

The values above are taken from patent US20040138316A1 (priority 2001, published 2004).
